This note sets out measurements from paper PMC9655717, “New Molecules of Diterpene Origin with Inhibitory Properties toward α-Glucosidase” (International Journal of Molecular Sciences, 2022).

The target in data set [1] is T1, α-glucosidase (Sigma G0660) (Saccharomyces cerevisiae, UniProt P53341).
T1 construct: purchased Sigma G0660
In words: Kinetic study of α-glucosidase inhibition (Michaelis-Menten, pNPG). In kind it is biochemical, yeast. The method, then:
The method’s principle based on the hydrolyzed reaction of 4-nitrophenyl-α-D-glucopiranoside with α-glucosidase enzyme into yellow 4- […]
The kinetic assay was performed according to the method using a series of […]
μL of 100 mM phosphate buffer (pH 6.8), 25 μL of α-glucosidase (0.4 U/mL, Sigma G0660) were pre-incubated for 10 min at 37 °C. DMSO was added to the respective control wells to a 0.64% final concentration. The reaction was initiated with the addition of 25 μL of p-nitrophenyl-[…] (pNPG, Sigma N1377) solution in a range of final concentrations. The amount of released p-nitrophenol from pNPG was immediately measured at 410 nm with Infinite M200 PRO (Tecan, Austria). Conversion of optical density to nM p-nitrophenol was performed with a standard curve. Reaction rates were determined from the linear parts of kinetic curves and fitted to the Michaelis-Menten equation. The assay was performed in triplicate wells and two independent […]
Ligands were prepared with MarvinSketch 18.8.0 (ChemAxon Ltd.). Ligands were hydrogenized and conformations with minimal potential energy were obtained using the MMFF94 force field. The homology model of S. cerevisiae α-glucosidase was obtained with SWISS-MODEL as described previously. Protein and ligand structures followed standard preparation procedure using AutoDocTools 1.5.6. We used AutoDock Vina 1.1.211 to perform all docking runs. The grid box with 70×80×80 Å dimensions was centered on the enzyme molecule to include the entire 3D space around the protein. The top-score binding poses were used in subsequent analysis. […]
(Dassault Systemes Biovia Corp.).
DPPH (0.1 mM) was diluted in methanol. 200 μL of this solution was added to 1.3 μL of various concentrations of compounds in DMSO (256.0, 64.0, 16.0, and 4.0 μg/mL). The mixture was performed by a 96-well plate at 25 °C in 30 min. […]

Another data set concerns Salmonella enterica. Briefly: Antimicrobial broth microdilution. It is filed as cell-based. The note with it: S. enterica. The method, then: (§1) Table S2. The result of antimicrobial tests of compounds 38, 45, 48 and 50.
(§2) Gram (+) strains Gram (-) strains Fungi
(§3) Compound Values (µg/ml) S. aureus B. L. S. E. P. C. subtilis fermentum enterica coli aeruginosa albican
(§4) The antimicrobial activity was determined by broth microdilution method as reported by. Broth dilution testing is one of the common methods used for determination of the MICs and IC50. The compounds are examined for visible bacterial growth as evidenced by turbidity. […]
(§5) S1.5. In vitro antimicrobial activity study of compounds 38, 45, 48 and 50 The Gram-positive bacteria: Bacillus subtilis (ATCC 6633), Lactobacillus fermentum (N4), Staphylococcus aureus (ATCC 13709); Gram -negative bacteria: Escherichia coli (ATCC 25922), Pseudomonas aeruginosa (ATCC 15442), Salmonella enterica; Yeast: Candida albicans (ATCC 10231) were obtained from American Type Culture Collection. The bacterial […]
(§6) Sabourand 2% dextrose broth, were purchased from Merck. […]
(§7) remaining at –80 0 C. Before assay, they were activated by culture medium and, adjusted the concentration to 5x10^5 CFU/mL. 10 μL of each concentration of each test […]
(§8) further incubated at 37 °C within 16-24h. The experiment was triplicated. Positive […]
(§9) medium without bacteria as a negative control. Ampicillin was used as a reference […]
(§10) inhibiting 50% the visible growth of the tested microorganisms. MIC, IC50 values are typically expressed as molar concentration. […]
(§11) treated with sample different concentrations on 96-well plates. Untreated cells represented the controls. […]
(§12) crystals are visible. Remove MTT and add DMSO solution (100 μL). The optical density […]
(§13) are evaluated to have cytotoxic activity.
Background: Broth dilution looks for growth in wells or tubes with falling amounts of substance.

The subject of data set [2] is Bacillus subtilis (ATCC 6633). Briefly: Antimicrobial broth microdilution. It is filed as cell-based. The note with it: ATCC6633, B. subtilis. The protocol: as §1, §2, §3, §4, §5, §6, §7, §8, §9, §10, §11, §12, §13
Data set [3] concerns Staphylococcus aureus (ATCC 13709). In words: Antimicrobial broth microdilution. It is filed as cell-based. The conditions noted are these: ATCC13709, S. aureus. The protocol: as §1, §2, §3, §4, §5, §6, §7, §8, §9, §10, §11, §12, §13
Data set [4] in a line: DPPH radical scavenging assay. The conditions noted are these: DPPH 0.1 mM in methanol, 25°C, 30 min. The protocol:
DPPH radical scavenging assay as described by Ha. The hydrogen atom donating ability of the plant extractives was determined by the decolorization of methanol solution of 2,2-diphenyl-1-picrylhydrazyl (DPPH). DPPH produces purple color in methanol solution and fades to shades of yellow color in the presence of antioxidants. […]
DPPH (0.1 mM) was diluted in methanol. 200 μL of this solution was added to 1.3 μL of various concentrations of compounds in DMSO (256.0, 64.0, 16.0, and 4.0 μg/mL). The mixture was performed by a 96-well plate at 25 °C in 30 min. Then, absorbance was determined by Epoch™ Microplate Spectrophotometer (at 517 nm). The percentage of DPPH quenching activity was computed by the following formula:
Inhibitory percentage SC (%) = [(Ao - A1)/Ao] × 100. where AO was defined as the absorbance of control reaction, and A1 represented for the absorbance in the presence of test or standard sample. Each experiment was repeated three times. Quercetin was used as a reference compound. […]

Another data set in a line: MTT cytotoxicity assay. The note with it: human. The protocol: The cytotoxic activity of compounds was evaluated against four cancer cell lines KB, Hep-G2, Lu-1 and MCF-7, using colorimetric MTT assay. […]
MTT assay was used to determine the cytotoxic activity of compounds with human cancer cell lines acquired from the American Type Culture Collection (ATCC): epidermoid carcinoma (KB, ATCC number CCL-17), hepatocellular carcinoma (HepG2, ATCC number HB-8065), lung adenocarcinoma LU-1 (ATCC number HTB - 57TM), breast adenocarcinoma MCF-7 (ATCC number HTB - 22TM. Cells were cultured in medium DMEM supplemented with 10% Fetal bovine serum (FBS), 1% Penicillin and Streptomycin and 1% L-glutamine, under a humidified atmosphere of 5% CO2 at 37°C.
Compounds were dissolved in DMSO at 40 mg/mL and a series of dilutions for each compound was prepared to final concentrations of 256, 64, 16, 4 and 1 μg/mL. Cells were separated with trypsin and seeded in each well with 3 x10^4 cells per ml and were treated with sample different concentrations on 96-well plates. Untreated cells represented the controls. After 72h of treatment, an MTT solution (10 μl, 5 mg/mL) of phosphate buffer was added to each well for 4 h until intracellular purple formazan crystals are visible. Remove MTT and add DMSO solution (100 μL). The optical density of the solution was determined by Epoch™ Microplate Spectrophotometer at 540 nm. The inhibition ratio was calculated based on the optical densities from the three replicate […]
as §13
On the technique in general: Tetrazolium dyes change colour on reduction, which living cells bring about.

In brackets after ≈: the same amount, converted by molar mass. Bounds are passed on as bounds.

T1 sequence (P53341 whole entry): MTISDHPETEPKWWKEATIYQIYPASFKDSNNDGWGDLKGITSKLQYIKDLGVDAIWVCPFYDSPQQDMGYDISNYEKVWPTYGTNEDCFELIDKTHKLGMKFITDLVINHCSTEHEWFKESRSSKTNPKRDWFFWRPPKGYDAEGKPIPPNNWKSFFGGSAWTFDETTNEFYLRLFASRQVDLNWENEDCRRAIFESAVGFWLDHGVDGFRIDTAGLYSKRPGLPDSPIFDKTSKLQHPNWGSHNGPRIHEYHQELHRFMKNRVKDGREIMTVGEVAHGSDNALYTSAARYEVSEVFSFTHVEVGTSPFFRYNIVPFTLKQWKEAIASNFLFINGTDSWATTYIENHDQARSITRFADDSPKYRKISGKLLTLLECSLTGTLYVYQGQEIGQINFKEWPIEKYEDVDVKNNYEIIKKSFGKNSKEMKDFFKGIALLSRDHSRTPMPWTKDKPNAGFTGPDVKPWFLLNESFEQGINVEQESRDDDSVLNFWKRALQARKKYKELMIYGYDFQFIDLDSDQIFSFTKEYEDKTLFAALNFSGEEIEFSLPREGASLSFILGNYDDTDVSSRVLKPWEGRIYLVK

One may read the Vmax as the rate approached at saturating substrate. What is called IC50 is the concentration at which inhibition is half-maximal. Broadly, the MIC is the least concentration at which growth counts as inhibited. Turning to `C#CCOC(=O)C1(C)CCCC2(C)C1CCC13C=C(C(C)C)C(CC12)c1c(O)cc2c(C(=O)OC)c(C)[nH]c2c13` (stereo not drawn) [Compound 45, Methyl 7-propynyl 1-hydroxy-13-isopropyl-7,10a,2′-trimethyl-5,6,6b,7,8,9,10,10a,10b,11,12,13-dodecahydro-12,4b-ethenophenanthro [2,1-g]indole-7,1′-dicarboxylate], the Vmax stood at 2.277 nM/min in data set [1] (Compound 45 at 25 μM), 2.221 nM/min in data set [1] (Compound 45 at 50 μM) and 2.249 nM/min in data set [1] (Compound 45 at 100 μM). In addition, in data set [1] (Michaelis-Menten nonlinear regression), the “mechanism of α-glucosidase inhibition” value is given as “competitive inhibitor”. Also, the IC50 (with Salmonella enterica; in data set [2]; in data set [3]) was more than 256 µg/mL throughout. Also, the MIC (with Salmonella enterica; in data set [2]; in data set [3]) was more than 256 µg/mL throughout. Moreover, in data set [4], the “IC50 values, antioxidant test (DPPH)” value is more than 256 µg/mL. The IC50 at 72 h amounted to 47.2 ± 1 µg/mL (≈ 86.8 µM) in the data set “MTT cytotoxicity assay” (Hep-G2 hepatocellular carcinoma cells (ATCC HB-8065)), 42.2 ± 0.84 µg/mL (≈ 77.6 µM) in “MTT cytotoxicity assay” (KB epidermoid carcinoma cells (ATCC CCL-17)), 16 ± 0.36 µg/mL (≈ 29.4 µM) in the data set “MTT cytotoxicity assay” (Lu-1 lung adenocarcinoma cells (ATCC HTB-57)) and 30.2 ± 0.8 µg/mL (≈ 55.6 µM) in “MTT cytotoxicity assay” (MCF-7 breast adenocarcinoma cells (ATCC HTB-22)).
